Test results as given in patent US10407388B2, “Thiourea derivatives as activators of RORα and pharmaceutical composition containing same” (SEOUL NATIONAL UNIVERSITY R & DB FOUNDATION, priority 2011, dated 2019).

Test system: MCP-1
Experiment: MCP-1 in alcoholic fatty liver mice model (ELISA, western blotting)
Format: in vivo, mice (C57BL/6)
Conditions: oral, 10 mg/kg body weight once a day for 2 weeks, alcohol group
Procedure: Eight-week-old black male laboratory mice (C57BL/6) were divided into: 1) control (n=8); 2) JC1-40-administered control (n=8); 3) alcohol group (n=12); and 4) JC1-40-administered alcohol group (n=12), and fed a Lieber-DeCarli liquid diet (Dyets Inc, Bethlehem, Pa., USA). The Lieber-DeCarli liquid diet in the form of powder was purchased, and then water was added thereto every morning to form a liquid-type feed such that 1 ml of the feed contained 1 kcal. The alcohol group was fed a gradually increasing amount of alcohol with an increment of 0.5% during a 2-week adaptation period, and then was fed a feed containing 5% alcohol for 5 weeks. The feed of the control included maltose dextrin instead of alcohol, and for pair-feeding, the feed included maltose dextrin in an amount providing the same calories as the calories that the amount of the feed fed to the mice of the alcohol group contained. During the 5-week ingestion of 5% alcohol, JC1-40 diluted with 0.5% carboxymethyl cellulose was orally administered once a day at a dose of 10 mg/kg body weight for 2 weeks prior to sacrificing the mice. After the 5-week alcohol feeding period was completed, the mice were fasted for 12 hours, and anesthetized to incise the abdomen, and blood and liver were removed from each mouse.

CNC(=S)NCc1ccc(OCc2ccccc2)cc1 [Compound 40, 1-(4-benzyloxy-benzyl)-3-methyl-thiourea]
level of cytokine MCP-1 (ELISA) (FIG. 16c): significantly decreased
expression of the MCP-1 protein (western blotting) (FIG. 16e): decreased to the level of the control
